Values joined by “and” are separate entries in the source; they are usually repeats but may differ in a detail not shown here. Equal values may be shown once.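 Five concentrations, 48 hours, 96-well plates. GI50 = concentration required for 50% inhibition of growth. The concentration for full growth arrest is given as TGI.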
How the values were obtained:
Assay in all cases: NCI tumour cell line growth inhibition, 48 h
[1] = test system: SNB-19 CNS
[2] = test system: CAKI-1 renal
[3] = test system: DMS 114 small cell lung
[4] = test system: HL-60(TB) leukemia
[5] = test system: MOLT-4 leukemia
[6] = test system: HOP-18 NSCLC
[7] = test system: HCC-2998 colon
[8] = test system: SN12K1 renal
[9] = test system: CCRF-CEM leukemia
[10] = test system: M14 melanoma
[11] = test system: OVCAR-8 ovarian
[12] = test system: UACC-257 melanoma
[13] = test system: DMS 273 small cell lung
[14] = test system: COLO 205 colon
[15] = test system: OVCAR-4 ovarian
[16] = test system: MDA-N
[17] = test system: DLD-1 colon
[18] = test system: P388 leukemia
[19] = test system: LXFL 529 NSCLC

SMILES | GI50 [1] | TGI [1] | GI50 [2] [µM] | TGI [2] [µM] | GI50 [4] | TGI [4] | GI50 [5] | TGI [6] | TGI [7] [µM] | GI50 [9] | TGI [9] [µM] | TGI [10] | GI50 [11] | TGI [11] | GI50 [12] | TGI [12] | TGI [13] | GI50 [14] | TGI [14] | TGI [15] | other results
CCN(CC)CCOc1cccc2nc3c(cc12)Cn1c-3cc2c(c1=O)COC(=O)C2(O)CC (stereo not drawn) | 0.329 µM and 0.87 µM | 30.6 µM and > 58.1 µM | 0.889 | 13.8 | 0.304 µM | 1.95 µM | 0.103 µM | 9.93 µM and 18.9 µM | 21.8 | 0.0125 µM and 0.0735 µM | 0.791 | 11.5 µM | 1.24 µM and 1.47 µM | 30.8 µM and 15.4 µM | 11 µM and 7.08 µM | 23.1 µM and 21 µM | 1.58 µM and 11.8 µM | 6.58 µM and 1.94 µM | 21.8 µM and 30.5 µM | 25.9 µM and 29.1 µM | GI50 [3]: 0.139 µM and 0.206 µM; GI50 [6]: 2.34 µM and 2.65 µM; GI50 [7]: 7.1 µM; GI50 [8]: 1.03 µM and 1.18 µM; TGI [8]: 11.4 µM and 14.1 µM; GI50 [10]: 1.11 µM; GI50 [13]: 0.086 µM and 0.33 µM; GI50 [15]: 11.2 µM and 8.77 µM; GI50 [16]: 13 µM; TGI [16]: 35.1 µM; GI50 [17]: 10.9 µM; TGI [17]: 38.8 µM
CCCCCCCCCCCC[C@@H](O)[C@H]1CC[C@H]([C@H](O)CCCC[C@H](O)CCCCC[C@@H](O)CC2=C[C@H](C)OC2=O)O1 | 2.32 µM | 5.45 µM and 11.4 µM | 5.39 | 10.5 | 0.548 µM and < 0.0574 µM | 4.24 µM and 2.13 µM | 1.74 µM and 0.891 µM | 15.5 µM | 10.6 | 1.98 µM | 7.58 | 5.25 µM and 10.4 µM | 3.09 µM | 5.8 µM and 20.3 µM | 0.0724 µM | 5.68 µM and 3.36 µM | 5.55 µM | 3.47 µM | 3.52 µM | 10.6 µM | TGI [3]: 0.371 µM; TGI [5]: 4.06 µM; TGI [18]: 3.76 µM; TGI [16]: 7.63 µM and 15.4 µM; TGI [19]: 10.8 µM; TGI [17]: 11.5 µM
